Data from patent publication US20260062412A1, “NITROGEN-CONTAINING HETEROCYCLIC COMPOUND HAVING MYT1 INHIBITORY ACTIVITY” (CHUGAI SEIYAKU KABUSHIKI KAISHA, priority 2023, published 2026).

biological target: MYT1 protein (Homo sapiens (Human), UniProt Q99640); test: Test for binding to ATP binding site of MYT1 (Kinase Tracer 178 / Eu-Anti-GST antibody TR-FRET); settings: ATP binding site of MYT1, 30 minutes at room temperature
Sequence (Q99640 whole entry): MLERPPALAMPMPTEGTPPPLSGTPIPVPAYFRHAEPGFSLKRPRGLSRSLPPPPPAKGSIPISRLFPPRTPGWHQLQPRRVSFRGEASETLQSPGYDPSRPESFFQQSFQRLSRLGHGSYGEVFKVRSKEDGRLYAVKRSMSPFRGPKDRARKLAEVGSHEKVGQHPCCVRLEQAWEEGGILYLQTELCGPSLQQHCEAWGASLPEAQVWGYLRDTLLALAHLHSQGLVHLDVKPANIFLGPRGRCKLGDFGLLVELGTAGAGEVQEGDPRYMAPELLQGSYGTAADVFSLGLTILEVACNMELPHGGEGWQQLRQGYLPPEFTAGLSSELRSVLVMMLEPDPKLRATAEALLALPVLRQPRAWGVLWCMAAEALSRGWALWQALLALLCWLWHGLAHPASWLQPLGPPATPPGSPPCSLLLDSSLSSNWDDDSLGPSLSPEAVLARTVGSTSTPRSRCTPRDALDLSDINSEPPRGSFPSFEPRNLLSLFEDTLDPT

Q: C[C@@H](F)COc1cc2c(-c3ccc(F)c4[nH]ncc34)c(N)c(=O)[nH]c2c2cccnc12 [Compound C61, (R)-3-amino-4-(7-fluoro-1H-indazol-4-yl)-6-(2-fluoropropoxy)-1,7-phenanthrolin-2(1H)-one] was tested. Which IC50 did it give?
A: The IC50 was 1.7 nM.

Q: With N#CCOc1cc2c(-c3ccc(F)c4[nH]ncc34)c(N)c(=O)[nH]c2c2cccnc12 [Compound C62, 2-[[3-Amino-4-(7-fluoro-1H-indazol-4-yl)-2-oxo-1H-1,7-phenanthrolin-6-yl]oxy]acetonitrile] as the molecule, how does the IC50 read?
A: The IC50 was 1.6 nM.

Q: Nc1c(-c2ccc(F)c3[nH]ncc23)c2cc(SC(F)F)c3ncccc3c2[nH]c1=O [Compound C63, 3-Amino-6-(difluoromethylsulfanyl)-4-(7-fluoro-1H-indazol-4-yl)-1H-1,7-phenanthrolin-2-one] was tested. Which IC50 did it give?
A: Its IC50 is 1.1 nM.

Q: Nc1c(-c2cc(F)c(F)c3[nH]ncc23)c2cc(Br)c3ncccc3c2[nH]c1=O [Compound C66, 3-Amino-6-bromo-4-(6,7-difluoro-1H-indazol-4-yl)-1H-1,7-phenanthrolin-2-one] was tested. Which IC50 did it give?
A: Its IC50 is 4.9 nM.

Q: With Nc1c(-c2cc(F)c(F)c3[nH]ncc23)c2cc(OCC(F)F)c3ncccc3c2[nH]c1=O [Compound C68, 3-Amino-6-(2,2-difluoroethoxy)-4-(6,7-difluoro-1H-indazol-4-yl)-1H-1,7-phenanthrolin-2-one] as the molecule, how does the IC50 read?
A: Its IC50 is 1.4 nM.

Q: With Nc1c(-c2cc(F)c(F)c3[nH]ncc23)c2cc(OCC3CC3)c3ncccc3c2[nH]c1=O [Compound C70, 3-Amino-6-(cyclopropylmethoxy)-4-(6,7-difluoro-1H-indazol-4-yl)-1H-1,7-phenanthrolin-2-one] as the molecule, how does the IC50 read?
A: Its IC50 is 1.1 nM.

Q: Which IC50 does the source give for Nc1c(-c2cc(F)c(F)c3[nH]ncc23)c2cc(OCC3(F)CC3)c3ncccc3c2[nH]c1=O [Compound C71, 3-Amino-4-(6,7-difluoro-1H-indazol-4-yl)-6-[(1-fluorocyclopropyl)methoxy]-1H-1,7-one] here?
A: Its IC50 is 1.7 nM.

Q: Which IC50 does the source give for Nc1c(-c2cc(F)c(F)c3[nH]ncc23)c2cc(OC(F)(F)F)c3ncccc3c2[nH]c1=O [Compound C72, 3-Amino-4-(6,7-difluoro-1H-indazol-4-yl)-6-(trifluoromethoxy)-1H-1,7-phenanthrolin-2-one] here?
A: The IC50 was 6.2 nM.

Q: How did the IC50 turn out when Nc1c(-c2ccc(Cl)c3[nH]ncc23)c2cc(Br)c3ncccc3c2[nH]c1=O [Compound C73, 3-Amino-6-bromo-4-(7-chloro-1H-indazol-4-yl)-1H-1,7-phenanthrolin-2-one] was run?
A: Its IC50 is under 14 nM.

Q: How did the IC50 turn out when COc1cc2c(-c3ccc(Cl)c4[nH]ncc34)c(N)c(=O)[nH]c2c2cccnc12 [Compound C74, 3-Amino-4-(7-chloro-1H-indazol-4-yl)-6-methoxy-1H-1,7-phenanthrolin-2-one] was run?
A: The IC50 was 0.83 nM.

Q: How did the IC50 turn out when Nc1c(-c2cc(F)c(Cl)c3[nH]ncc23)c2cc(Br)c3ncccc3c2[nH]c1=O [Compound C75, 3-Amino-6-bromo-4-(7-chloro-6-fluoro-1H-indazol-4-yl)-1H-1,7-phenanthrolin-2-one] was run?
A: The IC50 was 1.9 nM.

Q: With Nc1c(-c2ccc(Cl)c3[nH]ncc23)c2cc(Cl)c3ncccc3c2[nH]c1=O [Compound C77, 3-Amino-6-chloro-4-(7-chloro-1H-indazol-4-yl)-1H-1,7-phenanthrolin-2-one] as the molecule, how does the IC50 read?
A: Its IC50 is 8.5 nM.

Q: Which IC50 does the source give for Nc1c(-c2cncc3[nH]ncc23)c2cc(Br)c3ncccc3c2[nH]c1=O [Compound C80, 3-Amino-6-bromo-4-(1H-pyrazolo[3,4-c]pyridin-4-yl)-1H-1,7-phenanthrolin-2-one] here?
A: Its IC50 is 100 nM.

Q: Which IC50 does the source give for Nc1c(-c2ccnc3[nH]ncc23)c2cc(Br)c3ncccc3c2[nH]c1=O [Compound C81, 3-Amino-6-bromo-4-(1H-pyrazolo[3,4-b]pyridin-4-yl)-1H-1,7-phenanthrolin-2-one] here?
A: Its IC50 is 49 nM.

Q: Nc1c(-c2ccnc3[nH]ncc23)c2cc(C3CC3)c3ncccc3c2[nH]c1=O [Compound C82, 3-Amino-6-cyclopropyl-4-(1H-pyrazolo[3,4-b]pyridin-4-yl)-1H-1,7-phenanthrolin-2-one] was tested. Which IC50 did it give?
A: The IC50 was 11 nM.

Q: N#Cc1cc2c(-c3ccc(F)c4[nH]ncc34)c(N)c(=O)[nH]c2c2cccnc12 [Compound C87, 3-Amino-4-(7-fluoro-1H-indazol-4-yl)-2-oxo-1H-1,7-phenanthroline-6-carbonitrile] was tested. Which IC50 did it give?
A: Its IC50 is 18 nM.

Q: For C=Cc1cc2c(-c3ccc(F)c4[nH]ncc34)c(N)c(=O)[nH]c2c2cccnc12 [Compound C89, 3-Amino-6-ethenyl-4-(7-fluoro-1H-indazol-4-yl)-1H-1,7-phenanthrolin-2-one], which IC50 is on record?
A: Its IC50 is 3.9 nM.

Q: With CN(C)C(=O)Cc1cc2c(-c3ccc(F)c4[nH]ncc34)c(N)c(=O)[nH]c2c2cccnc12 [Compound C93, 2-[3-Amino-4-(7-fluoro-1H-indazol-4-yl)-2-oxo-1H-1,7-phenanthrolin-6-yl]-N,N-dimethylacetamide] as the molecule, how does the IC50 read?
A: The IC50 was 32 nM.

Q: With Nc1c(-c2ccc(F)c3[nH]ncc23)c2cc(C3=COCC3)c3ncccc3c2[nH]c1=O [Compound C94, 3-Amino-6-(2,3-dihydrofuran-4-yl)-4-(7-fluoro-1H-indazol-4-yl)-1H-1,7-phenanthrolin-2-one] as the molecule, how does the IC50 read?
A: The IC50 was 8.4 nM.

Q: With N#CC1(c2cc3c(-c4ccc(F)c5[nH]ncc45)c(N)c(=O)[nH]c3c3cccnc23)CC1 [Compound C95, 1-[3-Amino-4-(7-fluoro-1H-indazol-4-yl)-2-oxo-1H-1,7-phenanthrolin-6-yl]cyclopropane-1-carbonitrile] as the molecule, how does the IC50 read?
A: Its IC50 is 8.7 nM.

Q: Nc1c(-c2ccc(F)c3[nH]ncc23)c2cc(C3CCCO3)c3ncccc3c2[nH]c1=O (centres unmarked) [Compound C96, 3-Amino-4-(7-fluoro-1H-indazol-4-yl)-6-(oxolan-2-yl)-1H-1,7-phenanthrolin-2-one] was tested. Which IC50 did it give?
A: The IC50 was 5.3 nM.

Q: How did the IC50 turn out when CC(C)(C)OC(=O)N1CC(c2cc3c(-c4ccc(F)c5[nH]ncc45)c(N)c(=O)[nH]c3c3cccnc23)C1 [Compound C97, tert-Butyl 3-[3-amino-4-(7-fluoro-1H-indazol-4-yl)-2-oxo-1H-1,7-phenanthrolin-6-yl]azetidine-1-carboxylate] was run?
A: The IC50 was 22 nM.

Q: With CC(C)(C)OC(=O)N1CCC(c2cc3c(-c4ccc(F)c5[nH]ncc45)c(N)c(=O)[nH]c3c3cccnc23)CC1 [Compound C99, tert-Butyl 4-[3-amino-4-(7-fluoro-1H-indazol-4-yl)-2-oxo-1H-1,7-phenanthrolin-6-yl]piperidine-1-carboxylate] as the molecule, how does the IC50 read?
A: Its IC50 is 21 nM.

Q: With C=C(C)c1cc2c(-c3ccc(F)c4[nH]ncc34)c(N)c(=O)[nH]c2c2cccnc12 [Compound C103, 3-Amino-4-(7-fluoro-1H-indazol-4-yl)-6-prop-1-en-2-yl-1H-1,7-phenanthrolin-2-one] as the molecule, how does the IC50 read?
A: The IC50 was 4.3 nM.

Q: For CC(C)c1cc2c(-c3ccc(F)c4[nH]ncc34)c(N)c(=O)[nH]c2c2cccnc12 [Compound C104, 3-Amino-4-(7-fluoro-1H-indazol-4-yl)-6-propan-2-yl-1H-1,7-phenanthrolin-2-one], which IC50 is on record?
A: Its IC50 is 3.4 nM.

Q: Which IC50 does the source give for CC(C)Cc1cc2c(-c3ccc(F)c4[nH]ncc34)c(N)c(=O)[nH]c2c2cccnc12 [Compound C105, 3-Amino-4-(7-fluoro-1H-indazol-4-yl)-6-(2-methylpropyl)-1H-1,7-phenanthrolin-2-one] here?
A: The IC50 was 5 nM.

Q: How did the IC50 turn out when CCCc1cc2c(-c3ccc(F)c4[nH]ncc34)c(N)c(=O)[nH]c2c2cccnc12 [Compound C106, 3-Amino-4-(7-fluoro-1H-indazol-4-yl)-6-propyl-1H-1,7-phenanthrolin-2-one] was run?
A: The IC50 was 2.7 nM.

Q: Which IC50 does the source give for CC(C)CCc1cc2c(-c3ccc(F)c4[nH]ncc34)c(N)c(=O)[nH]c2c2cccnc12 [Compound C107, 3-Amino-4-(7-fluoro-1H-indazol-4-yl)-6-(3-methylbutyl)-1H-1,7-phenanthrolin-2-one] here?
A: Its IC50 is 8.1 nM.

Q: Which IC50 does the source give for CCC(CC)c1cc2c(-c3ccc(F)c4[nH]ncc34)c(N)c(=O)[nH]c2c2cccnc12 [Compound C108, 3-Amino-4-(7-fluoro-1H-indazol-4-yl)-6-pentan-3-yl-1H-1,7-phenanthrolin-2-one] here?
A: The IC50 was 37 nM.

Q: How did the IC50 turn out when CCC(C)c1cc2c(-c3ccc(F)c4[nH]ncc34)c(N)c(=O)[nH]c2c2cccnc12 (centres unmarked) [Compound C109, 3-Amino-6-butan-2-yl-4-(7-fluoro-1H-indazol-4-yl)-1H-1,7-phenanthrolin-2-one] was run?
A: Its IC50 is 4.6 nM.

Q: For CP(C)(=O)c1cc2c(-c3ccc(F)c4[nH]ncc34)c(N)c(=O)[nH]c2c2cccnc12 [Compound C110, 3-Amino-6-dimethylphosphoryl-4-(7-fluoro-1H-indazol-4-yl)-1H-1,7-phenanthrolin-2-one], which IC50 is on record?
A: Its IC50 is 14 nM.

Q: For Nc1c(-c2ccc(F)c3[nH]ncc23)c2cc(I)c3ncccc3c2[nH]c1=O [Compound C111, 3-Amino-4-(7-fluoro-1H-indazol-4-yl)-6-iodo-1H-1,7-phenanthrolin-2-one], which IC50 is on record?
A: Its IC50 is 4.9 nM.

Q: Nc1c(-c2ccc(F)c3[nH]ncc23)c2cc(N3CCCC3=O)c3ncccc3c2[nH]c1=O [Compound C112, 3-Amino-4-(7-fluoro-1H-indazol-4-yl)-6-(2-oxopyrrolidin-1-yl)-1H-1,7-phenanthrolin-2-one] was tested. Which IC50 did it give?
A: The IC50 was 78 nM.

Q: Nc1c(-c2ccc(F)c3[nH]ncc23)c2cc(N3CCCC3)c3ncccc3c2[nH]c1=O [Compound C113, 3-Amino-4-(7-fluoro-1H-indazol-4-yl)-6-pyrrolidin-1-yl-1H-1,7-phenanthrolin-2-one] was tested. Which IC50 did it give?
A: Its IC50 is 4.6 nM.

Q: With CN1CCN(c2cc3c(-c4ccc(F)c5[nH]ncc45)c(N)c(=O)[nH]c3c3cccnc23)CC1 [Compound C114, 3-Amino-4-(7-fluoro-1H-indazol-4-yl)-6-(4-methylpiperazin-1-yl)-1H-1,7-phenanthrolin-2-one] as the molecule, how does the IC50 read?
A: The IC50 was 2 nM.

Q: Which IC50 does the source give for Nc1c(-c2ccc(F)c3[nH]ncc23)c2cc(N3CCC(F)(F)C3)c3ncccc3c2[nH]c1=O [Compound C115, 3-Amino-6-(3,3-difluoropyrrolidin-1-yl)-4-(7-fluoro-1H-indazol-4-yl)-1H-1,7-phenanthrolin-2-one] here?
A: Its IC50 is 3.7 nM.

Q: Which IC50 does the source give for Nc1c(-c2ccc(F)c3[nH]ncc23)c2cc(N3CCC(O)C3)c3ncccc3c2[nH]c1=O (centres unmarked) [Compound C116, 3-Amino-4-(7-fluoro-1H-indazol-4-yl)-6-(3-hydroxypyrrolidin-1-yl)-1H-1,7-phenanthrolin-2-one] here?
A: Its IC50 is 2.7 nM.

Q: How did the IC50 turn out when Nc1c(-c2ccc(F)c3[nH]ncc23)c2cc(N3CCC(N4CCOCC4)CC3)c3ncccc3c2[nH]c1=O [Compound C117, 3-Amino-4-(7-fluoro-1H-indazol-4-yl)-6-(4-morpholin-4-ylpiperidin-1-yl)-1H-1,7-one] was run?
A: The IC50 was 3.5 nM.
